Tests used:
Type in all cases: functional
[1] = biological target: T1, Mitogen-activated protein kinase (Plasmodium falciparum, UniProt Q25917); test: Final concentrations were 1 uM ATP, 0.5 mM DTT, 1 mM MgCl2, 0.5 mg/mL BSA, and 10 ug/ml MAP2 in a buffer of 50 mM HEPES (pH 7.0). 0.5 mg/mL histone III-S served as the substrate (13); 100 uM AMP-PNP, an ATP analog, was used as a control inhibitor. Incubation time was 4 hours.
T1 sequence (Q25917 whole entry): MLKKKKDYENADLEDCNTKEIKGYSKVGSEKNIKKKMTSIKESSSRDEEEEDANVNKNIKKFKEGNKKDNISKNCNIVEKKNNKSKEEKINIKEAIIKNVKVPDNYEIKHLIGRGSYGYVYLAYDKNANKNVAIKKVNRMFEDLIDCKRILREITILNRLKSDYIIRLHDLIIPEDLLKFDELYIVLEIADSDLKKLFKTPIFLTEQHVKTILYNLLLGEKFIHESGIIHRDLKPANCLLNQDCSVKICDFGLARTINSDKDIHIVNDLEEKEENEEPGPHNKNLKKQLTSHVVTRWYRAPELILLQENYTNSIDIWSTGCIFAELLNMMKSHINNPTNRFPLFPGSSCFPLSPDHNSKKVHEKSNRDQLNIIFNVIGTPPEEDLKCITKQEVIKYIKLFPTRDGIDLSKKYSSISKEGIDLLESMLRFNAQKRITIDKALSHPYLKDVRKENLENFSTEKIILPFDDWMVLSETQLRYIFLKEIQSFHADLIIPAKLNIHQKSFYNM

Proline--tRNA ligase = biological target: T2, Proline--tRNA ligase (Plasmodium falciparum (isolate 3D7), UniProt Q8I5R7); test: MMV: ProRS recombinant Plasmodium falciparum Prolyl-tRNA-synthetase, assay with yeast tRNA, ATP, and proline and 3 uM MMV malaria box compound, assay read out with kinase glo as % inhibition.
T2 sequence (Q8I5R7 whole entry): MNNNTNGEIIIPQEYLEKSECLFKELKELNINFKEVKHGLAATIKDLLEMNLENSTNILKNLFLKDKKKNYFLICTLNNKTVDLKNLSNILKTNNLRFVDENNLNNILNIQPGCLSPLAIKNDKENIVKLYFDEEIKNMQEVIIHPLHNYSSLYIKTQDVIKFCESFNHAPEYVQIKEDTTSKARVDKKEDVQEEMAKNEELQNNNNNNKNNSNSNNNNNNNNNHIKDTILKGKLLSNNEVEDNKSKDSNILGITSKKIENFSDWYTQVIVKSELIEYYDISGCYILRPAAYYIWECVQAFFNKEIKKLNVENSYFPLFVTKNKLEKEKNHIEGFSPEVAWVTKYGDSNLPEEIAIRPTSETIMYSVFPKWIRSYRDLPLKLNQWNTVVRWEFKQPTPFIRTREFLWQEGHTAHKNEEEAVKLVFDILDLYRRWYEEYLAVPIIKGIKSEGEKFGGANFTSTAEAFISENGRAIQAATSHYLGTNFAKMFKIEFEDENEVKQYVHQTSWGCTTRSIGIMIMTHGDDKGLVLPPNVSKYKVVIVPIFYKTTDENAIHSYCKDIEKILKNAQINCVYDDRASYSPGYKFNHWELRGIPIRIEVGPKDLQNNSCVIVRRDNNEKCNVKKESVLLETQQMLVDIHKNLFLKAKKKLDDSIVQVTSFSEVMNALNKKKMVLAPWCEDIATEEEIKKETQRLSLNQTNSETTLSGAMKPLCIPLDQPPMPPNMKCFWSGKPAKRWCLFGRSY

Lysine--tRNA ligase = Lysine--tRNA ligase (Plasmodium falciparum (isolate 3D7), UniProt Q8IDJ8); test: MMV: KRS recombinant Plasmodium falciparum Lysyl-tRNA-synthetase, assay with yeast tRNA, ATP, and lysine and 3 uM MMV malaria box compound, assay read out with kinase glo as % inhibition.
Sequence of Lysine--tRNA ligase (Q8IDJ8 whole entry): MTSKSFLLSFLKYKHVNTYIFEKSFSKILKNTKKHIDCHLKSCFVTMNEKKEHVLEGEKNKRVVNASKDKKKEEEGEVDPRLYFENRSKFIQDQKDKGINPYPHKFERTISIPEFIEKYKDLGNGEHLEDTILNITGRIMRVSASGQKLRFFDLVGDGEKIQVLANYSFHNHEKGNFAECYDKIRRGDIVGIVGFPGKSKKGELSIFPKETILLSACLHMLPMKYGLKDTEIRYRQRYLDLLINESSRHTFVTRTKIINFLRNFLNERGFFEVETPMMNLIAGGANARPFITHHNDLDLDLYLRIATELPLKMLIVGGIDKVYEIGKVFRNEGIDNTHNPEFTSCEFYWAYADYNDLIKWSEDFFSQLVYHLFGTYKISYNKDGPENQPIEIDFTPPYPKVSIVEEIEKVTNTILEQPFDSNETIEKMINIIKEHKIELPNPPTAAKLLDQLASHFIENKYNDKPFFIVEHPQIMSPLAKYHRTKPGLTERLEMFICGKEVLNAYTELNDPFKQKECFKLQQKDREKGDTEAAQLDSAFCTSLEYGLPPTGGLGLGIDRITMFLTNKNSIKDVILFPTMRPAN

[2] = biological target: T3, Calcium-dependent protein kinase 4 (Plasmodium falciparum (isolate 3D7), UniProt Q8IBS5); test: MMV: CDPK4 Protein kinase inhibition assay using recombinant PfCDPK4, syntide2 peptide substrate, ATP and KinaseGlo to measure % inhibition at 1 uM MMV box compound.
T3 sequence (Q8IBS5 whole entry): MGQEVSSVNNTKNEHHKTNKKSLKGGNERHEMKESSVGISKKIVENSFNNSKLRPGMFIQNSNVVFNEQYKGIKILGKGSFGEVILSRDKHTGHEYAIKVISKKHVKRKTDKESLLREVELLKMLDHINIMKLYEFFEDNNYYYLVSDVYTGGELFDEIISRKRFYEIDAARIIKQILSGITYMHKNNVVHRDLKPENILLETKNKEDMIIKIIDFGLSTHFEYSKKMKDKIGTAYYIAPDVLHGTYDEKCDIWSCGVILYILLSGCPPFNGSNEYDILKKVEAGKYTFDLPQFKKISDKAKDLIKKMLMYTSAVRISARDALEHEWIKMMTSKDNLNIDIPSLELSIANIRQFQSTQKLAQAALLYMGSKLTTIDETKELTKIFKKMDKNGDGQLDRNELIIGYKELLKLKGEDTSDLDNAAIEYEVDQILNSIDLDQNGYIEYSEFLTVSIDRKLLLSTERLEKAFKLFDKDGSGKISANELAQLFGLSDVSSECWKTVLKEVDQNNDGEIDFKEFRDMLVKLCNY

[3] = biological target: Calcium-dependent protein kinase 1 (Plasmodium falciparum, UniProt P62344); test: MMV: CDPK1 Protein kinase inhibition assay using recombinant PfCDPK1, syntide 2 peptide substrate, ATP and KinaseGlo to measure % inhibition at 1 uM MMV box compound.
Sequence of Calcium-dependent protein kinase 1 (P62344 whole entry): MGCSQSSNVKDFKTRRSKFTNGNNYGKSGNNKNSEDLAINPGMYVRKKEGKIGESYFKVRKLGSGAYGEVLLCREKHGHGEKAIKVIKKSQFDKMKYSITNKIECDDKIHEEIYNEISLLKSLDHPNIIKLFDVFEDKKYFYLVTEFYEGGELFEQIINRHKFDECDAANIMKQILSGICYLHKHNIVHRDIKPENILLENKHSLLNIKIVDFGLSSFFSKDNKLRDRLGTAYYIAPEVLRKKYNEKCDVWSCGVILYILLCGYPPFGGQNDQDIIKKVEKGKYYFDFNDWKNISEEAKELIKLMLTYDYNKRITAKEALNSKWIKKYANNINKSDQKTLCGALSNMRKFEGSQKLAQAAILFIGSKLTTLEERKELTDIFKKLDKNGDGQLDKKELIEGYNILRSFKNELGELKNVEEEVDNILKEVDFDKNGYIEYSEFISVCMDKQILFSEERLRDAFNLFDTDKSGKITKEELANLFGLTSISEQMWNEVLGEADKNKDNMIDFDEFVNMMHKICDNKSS

[4] = biological target: T4, Putative uncharacterized protein pk7 (Plasmodium falciparum, UniProt O96214); test: Final concentrations were 1 uM ATP, 2 mM DTT, 20 mM MgCl2, 2 mM MnCl2, 0.01% BSA, and 6 ug/ml PK7, in a buffer of 20 mM Tris-HCl (pH 7.5). The enzyme itself was the only substrate present (since autophosphorylation occurs); 100 uM 1NA-PP1 was used as a control inhibitor. Incubation time was 3 hours.
T4 sequence (O96214 whole entry): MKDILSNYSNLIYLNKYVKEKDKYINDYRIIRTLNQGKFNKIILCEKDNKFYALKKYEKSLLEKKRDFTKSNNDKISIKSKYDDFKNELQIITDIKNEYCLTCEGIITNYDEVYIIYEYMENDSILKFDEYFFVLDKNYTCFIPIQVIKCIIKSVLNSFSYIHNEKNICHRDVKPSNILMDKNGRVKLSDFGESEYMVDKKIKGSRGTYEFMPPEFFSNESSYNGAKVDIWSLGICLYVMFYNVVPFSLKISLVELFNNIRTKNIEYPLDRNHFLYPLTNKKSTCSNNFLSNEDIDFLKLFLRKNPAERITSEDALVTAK

[5] = biological target: T5, Cdk-related protein kinase 6 (Plasmodium falciparum, UniProt O77239); test: Final concentrations were 1.5 uM ATP, 5 mM MnCl2, and 15 ug/ml PK6 in a buffer of 100 mM Tris-HCl (pH 7.5). 50 ug/mL MBP was provided as the substrate; 10 uM staurosporine was used as a control inhibitor. Incubation time was 3 hours and 40 minutes.The catalytic activity of each kinase was considered proportional to ATP consumed, as determined from measurements of residual [ATP] with the luciferase-based reagent Kinase-Glo (Promega) following incubation. Luminescence (proportional to residual [ATP]) was measured on the plate readers FLx800 (BioTek Instruments, Winooski, VT, USA) and MicroBeta2.
T5 sequence (O77239 whole entry): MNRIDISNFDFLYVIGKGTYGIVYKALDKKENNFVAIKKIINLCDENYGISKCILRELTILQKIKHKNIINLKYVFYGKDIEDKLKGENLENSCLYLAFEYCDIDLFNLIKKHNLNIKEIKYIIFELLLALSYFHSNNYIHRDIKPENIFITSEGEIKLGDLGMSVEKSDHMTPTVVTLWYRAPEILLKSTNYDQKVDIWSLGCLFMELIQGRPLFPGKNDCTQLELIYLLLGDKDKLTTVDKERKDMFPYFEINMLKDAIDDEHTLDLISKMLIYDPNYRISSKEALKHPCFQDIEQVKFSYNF

Q: With `c1ccc2c(NCCc3c[nH]c4ccccc34)c3ccccc3nc2c1` as the molecule, how does the IC50 [1] read?
A: > 1 µM

Q: What about the IC50 (Proline--tRNA ligase) of the same molecule?
A: > 2.5 µM

Q: What about the IC50 (Lysine--tRNA ligase) of the same molecule?
A: > 2.5 µM

Q: What about the IC50 [2] of the same molecule?
A: > 1 µM

Q: What about the IC50 [3] of the same molecule?
A: > 1 µM

Q: What about the IC50 [4] of the same molecule?
A: > 1 µM

Q: And the IC50 [5]?
A: > 1 µM

Q: What does the source list for `CCOC(=O)c1cnc2c(C)cccc2c1Nc1ccc(C(C)=O)cc1`?
A: IC50 [1]: > 1 µM; IC50 (Proline--tRNA ligase): > 2.5 µM; IC50 (Lysine--tRNA ligase): > 2.5 µM; IC50 [2]: > 1 µM; IC50 [3]: > 1 µM; IC50 [4]: > 1 µM; IC50 [5]: > 1 µM

Q: How did the IC50 [1] turn out when `Cc1ccc(C2CC(C(F)(F)F)n3nc(C(=O)N4CCN(C(c5ccccc5)c5ccccc5)CC4)cc3N2)cc1` (stereo unspecified) was run?
A: > 1 µM

Q: And the IC50 (Proline--tRNA ligase)?
A: > 2.5 µM

Q: And the IC50 (Lysine--tRNA ligase)?
A: > 2.5 µM

Q: And the IC50 [2]?
A: > 1 µM

Q: What about the IC50 [3] of the same molecule?
A: > 1 µM

Q: And the IC50 [4]?
A: > 1 µM

Q: What about the IC50 [5] of the same molecule?
A: > 1 µM

Q: What does the source list for `COc1cccc(C(=O)NC(c2ccc(C)cc2)c2cc(Cl)c3cccnc3c2O)c1` (stereo unspecified)?
A: IC50 [1]: > 1 µM; IC50 (Proline--tRNA ligase): > 2.5 µM; IC50 (Lysine--tRNA ligase): > 2.5 µM; IC50 [2]: > 1 µM; IC50 [3]: > 1 µM; IC50 [4]: > 1 µM; IC50 [5]: > 1 µM

Q: How did the IC50 [1] turn out when `CCOc1ccc2c(c1)CN(Cc1ccc(Cl)cc1)CO2` was run?
A: > 1 µM

Q: And the IC50 (Proline--tRNA ligase)?
A: > 2.5 µM

Q: What about the IC50 (Lysine--tRNA ligase) of the same molecule?
A: > 2.5 µM

Q: What about the IC50 [2] of the same molecule?
A: > 1 µM

Q: What about the IC50 [3] of the same molecule?
A: > 1 µM

Q: And the IC50 [4]?
A: > 1 µM

Q: What about the IC50 [5] of the same molecule?
A: > 1 µM

Q: Which results are given for `CCCc1c(C)nc2ccc(Br)cc2c1O`?
A: IC50 [1]: > 1 µM; IC50 (Proline--tRNA ligase): > 2.5 µM; IC50 (Lysine--tRNA ligase): > 2.5 µM; IC50 [2]: > 1 µM; IC50 [3]: > 1 µM; IC50 [4]: > 1 µM; IC50 [5]: > 1 µM

Q: How did the IC50 [1] turn out when `CCOc1ccc(Nc2c3ccccc3nc3ccccc23)cc1` was run?
A: > 1 µM

Q: What about the IC50 (Proline--tRNA ligase) of the same molecule?
A: > 2.5 µM

Q: And the IC50 (Lysine--tRNA ligase)?
A: > 2.5 µM

Q: And the IC50 [2]?
A: > 1 µM

Q: What about the IC50 [3] of the same molecule?
A: > 1 µM

Q: What about the IC50 [4] of the same molecule?
A: > 1 µM

Q: And the IC50 [5]?
A: > 1 µM

Q: `COc1ccccc1N1C(=N)SC(=Cc2ccc(OCc3ccccc3F)cc2)C1=O` was tested. Which IC50 [1] did it give?
A: > 1 µM

Q: And the IC50 (Proline--tRNA ligase)?
A: > 2.5 µM

Q: And the IC50 (Lysine--tRNA ligase)?
A: > 2.5 µM

Q: What about the IC50 [2] of the same molecule?
A: > 1 µM

Q: And the IC50 [3]?
A: > 1 µM

Q: What about the IC50 [4] of the same molecule?
A: > 1 µM

Q: What about the IC50 [5] of the same molecule?
A: > 1 µM
